Laboratory results published in PMC6407917, “Identification of GSK3186899/DDD853651 as a Preclinical Development Candidate for the Treatment of Visceral Leishmaniasis” (Journal of Medicinal Chemistry, 2018).

Tests used:
Assay in all cases: biochemical
Parameters in all cases: species or system HEK293/K-562/placenta mixed human extract; Kinobeads chemoproteomic competition binding, quantified by TMT LC-MS/MS, dose response up to 20 uM
FRK = FRK (Homo sapiens, UniProt P42685)
MAPKAPK3 = MAPKAPK3 (Homo sapiens, UniProt Q16644)
DYRK1A = DYRK1A (Homo sapiens, UniProt Q13627)
TTK = TTK (Homo sapiens, UniProt P33981)
MERTK = MERTK (Homo sapiens, UniProt Q12866)
JAK3 = JAK3 (Homo sapiens, UniProt P52333)
MAP3K4 = MAP3K4 (Homo sapiens, UniProt Q9Y6R4)
TEK = TEK (Homo sapiens, UniProt Q02763)
HIPK1 = HIPK1 (Homo sapiens, UniProt Q86Z02)
PTK2B = PTK2B (Homo sapiens, UniProt Q14289)
ACVR1B = ACVR1B (Homo sapiens, UniProt P36896)
PRKCI = PRKCI (Homo sapiens, UniProt P41743)
FN3KRP = FN3KRP (Homo sapiens, UniProt Q9HA64)
BMX = BMX (Homo sapiens, UniProt P51813)
ATM = ATM (Homo sapiens, UniProt Q13315)
EPHA7 = EPHA7 (Homo sapiens, UniProt Q15375)
RPS6KA6 = RPS6KA6 (Homo sapiens, UniProt Q9UK32)
KIT = KIT (Homo sapiens, UniProt P10721)
MKNK1 = MKNK1 (Homo sapiens, UniProt Q9BUB5)
MAP4K3 = MAP4K3 (Homo sapiens, UniProt Q8IVH8)
AZI2 = AZI2 (Homo sapiens, UniProt Q9H6S1)

Sequence of EPHA7 (Q15375 whole entry): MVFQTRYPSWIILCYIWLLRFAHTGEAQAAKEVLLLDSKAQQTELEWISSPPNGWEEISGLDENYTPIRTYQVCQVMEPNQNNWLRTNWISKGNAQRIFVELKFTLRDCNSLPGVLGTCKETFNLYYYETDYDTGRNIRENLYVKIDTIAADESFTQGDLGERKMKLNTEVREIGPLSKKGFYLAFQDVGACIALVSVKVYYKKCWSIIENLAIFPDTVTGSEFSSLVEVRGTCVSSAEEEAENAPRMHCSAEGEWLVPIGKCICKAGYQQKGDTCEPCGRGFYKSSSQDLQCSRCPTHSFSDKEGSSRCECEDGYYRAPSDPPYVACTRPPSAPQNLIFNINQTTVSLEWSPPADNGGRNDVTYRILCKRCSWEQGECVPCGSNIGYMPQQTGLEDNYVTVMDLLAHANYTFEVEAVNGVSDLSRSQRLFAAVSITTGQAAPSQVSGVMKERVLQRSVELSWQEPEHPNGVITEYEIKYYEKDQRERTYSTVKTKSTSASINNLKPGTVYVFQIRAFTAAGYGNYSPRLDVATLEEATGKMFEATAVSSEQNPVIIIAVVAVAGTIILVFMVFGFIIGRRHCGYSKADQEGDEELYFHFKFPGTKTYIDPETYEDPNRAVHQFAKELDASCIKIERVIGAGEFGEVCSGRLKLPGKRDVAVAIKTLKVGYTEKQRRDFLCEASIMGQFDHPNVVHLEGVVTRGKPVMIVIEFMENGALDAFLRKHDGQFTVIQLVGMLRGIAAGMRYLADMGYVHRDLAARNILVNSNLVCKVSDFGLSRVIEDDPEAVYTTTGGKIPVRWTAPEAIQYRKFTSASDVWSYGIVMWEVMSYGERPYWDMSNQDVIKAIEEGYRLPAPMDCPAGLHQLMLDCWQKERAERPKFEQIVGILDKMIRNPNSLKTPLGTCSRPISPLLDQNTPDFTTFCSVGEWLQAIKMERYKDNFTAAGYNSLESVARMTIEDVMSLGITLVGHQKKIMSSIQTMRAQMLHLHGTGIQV
Sequence of ATM (Q13315 whole entry): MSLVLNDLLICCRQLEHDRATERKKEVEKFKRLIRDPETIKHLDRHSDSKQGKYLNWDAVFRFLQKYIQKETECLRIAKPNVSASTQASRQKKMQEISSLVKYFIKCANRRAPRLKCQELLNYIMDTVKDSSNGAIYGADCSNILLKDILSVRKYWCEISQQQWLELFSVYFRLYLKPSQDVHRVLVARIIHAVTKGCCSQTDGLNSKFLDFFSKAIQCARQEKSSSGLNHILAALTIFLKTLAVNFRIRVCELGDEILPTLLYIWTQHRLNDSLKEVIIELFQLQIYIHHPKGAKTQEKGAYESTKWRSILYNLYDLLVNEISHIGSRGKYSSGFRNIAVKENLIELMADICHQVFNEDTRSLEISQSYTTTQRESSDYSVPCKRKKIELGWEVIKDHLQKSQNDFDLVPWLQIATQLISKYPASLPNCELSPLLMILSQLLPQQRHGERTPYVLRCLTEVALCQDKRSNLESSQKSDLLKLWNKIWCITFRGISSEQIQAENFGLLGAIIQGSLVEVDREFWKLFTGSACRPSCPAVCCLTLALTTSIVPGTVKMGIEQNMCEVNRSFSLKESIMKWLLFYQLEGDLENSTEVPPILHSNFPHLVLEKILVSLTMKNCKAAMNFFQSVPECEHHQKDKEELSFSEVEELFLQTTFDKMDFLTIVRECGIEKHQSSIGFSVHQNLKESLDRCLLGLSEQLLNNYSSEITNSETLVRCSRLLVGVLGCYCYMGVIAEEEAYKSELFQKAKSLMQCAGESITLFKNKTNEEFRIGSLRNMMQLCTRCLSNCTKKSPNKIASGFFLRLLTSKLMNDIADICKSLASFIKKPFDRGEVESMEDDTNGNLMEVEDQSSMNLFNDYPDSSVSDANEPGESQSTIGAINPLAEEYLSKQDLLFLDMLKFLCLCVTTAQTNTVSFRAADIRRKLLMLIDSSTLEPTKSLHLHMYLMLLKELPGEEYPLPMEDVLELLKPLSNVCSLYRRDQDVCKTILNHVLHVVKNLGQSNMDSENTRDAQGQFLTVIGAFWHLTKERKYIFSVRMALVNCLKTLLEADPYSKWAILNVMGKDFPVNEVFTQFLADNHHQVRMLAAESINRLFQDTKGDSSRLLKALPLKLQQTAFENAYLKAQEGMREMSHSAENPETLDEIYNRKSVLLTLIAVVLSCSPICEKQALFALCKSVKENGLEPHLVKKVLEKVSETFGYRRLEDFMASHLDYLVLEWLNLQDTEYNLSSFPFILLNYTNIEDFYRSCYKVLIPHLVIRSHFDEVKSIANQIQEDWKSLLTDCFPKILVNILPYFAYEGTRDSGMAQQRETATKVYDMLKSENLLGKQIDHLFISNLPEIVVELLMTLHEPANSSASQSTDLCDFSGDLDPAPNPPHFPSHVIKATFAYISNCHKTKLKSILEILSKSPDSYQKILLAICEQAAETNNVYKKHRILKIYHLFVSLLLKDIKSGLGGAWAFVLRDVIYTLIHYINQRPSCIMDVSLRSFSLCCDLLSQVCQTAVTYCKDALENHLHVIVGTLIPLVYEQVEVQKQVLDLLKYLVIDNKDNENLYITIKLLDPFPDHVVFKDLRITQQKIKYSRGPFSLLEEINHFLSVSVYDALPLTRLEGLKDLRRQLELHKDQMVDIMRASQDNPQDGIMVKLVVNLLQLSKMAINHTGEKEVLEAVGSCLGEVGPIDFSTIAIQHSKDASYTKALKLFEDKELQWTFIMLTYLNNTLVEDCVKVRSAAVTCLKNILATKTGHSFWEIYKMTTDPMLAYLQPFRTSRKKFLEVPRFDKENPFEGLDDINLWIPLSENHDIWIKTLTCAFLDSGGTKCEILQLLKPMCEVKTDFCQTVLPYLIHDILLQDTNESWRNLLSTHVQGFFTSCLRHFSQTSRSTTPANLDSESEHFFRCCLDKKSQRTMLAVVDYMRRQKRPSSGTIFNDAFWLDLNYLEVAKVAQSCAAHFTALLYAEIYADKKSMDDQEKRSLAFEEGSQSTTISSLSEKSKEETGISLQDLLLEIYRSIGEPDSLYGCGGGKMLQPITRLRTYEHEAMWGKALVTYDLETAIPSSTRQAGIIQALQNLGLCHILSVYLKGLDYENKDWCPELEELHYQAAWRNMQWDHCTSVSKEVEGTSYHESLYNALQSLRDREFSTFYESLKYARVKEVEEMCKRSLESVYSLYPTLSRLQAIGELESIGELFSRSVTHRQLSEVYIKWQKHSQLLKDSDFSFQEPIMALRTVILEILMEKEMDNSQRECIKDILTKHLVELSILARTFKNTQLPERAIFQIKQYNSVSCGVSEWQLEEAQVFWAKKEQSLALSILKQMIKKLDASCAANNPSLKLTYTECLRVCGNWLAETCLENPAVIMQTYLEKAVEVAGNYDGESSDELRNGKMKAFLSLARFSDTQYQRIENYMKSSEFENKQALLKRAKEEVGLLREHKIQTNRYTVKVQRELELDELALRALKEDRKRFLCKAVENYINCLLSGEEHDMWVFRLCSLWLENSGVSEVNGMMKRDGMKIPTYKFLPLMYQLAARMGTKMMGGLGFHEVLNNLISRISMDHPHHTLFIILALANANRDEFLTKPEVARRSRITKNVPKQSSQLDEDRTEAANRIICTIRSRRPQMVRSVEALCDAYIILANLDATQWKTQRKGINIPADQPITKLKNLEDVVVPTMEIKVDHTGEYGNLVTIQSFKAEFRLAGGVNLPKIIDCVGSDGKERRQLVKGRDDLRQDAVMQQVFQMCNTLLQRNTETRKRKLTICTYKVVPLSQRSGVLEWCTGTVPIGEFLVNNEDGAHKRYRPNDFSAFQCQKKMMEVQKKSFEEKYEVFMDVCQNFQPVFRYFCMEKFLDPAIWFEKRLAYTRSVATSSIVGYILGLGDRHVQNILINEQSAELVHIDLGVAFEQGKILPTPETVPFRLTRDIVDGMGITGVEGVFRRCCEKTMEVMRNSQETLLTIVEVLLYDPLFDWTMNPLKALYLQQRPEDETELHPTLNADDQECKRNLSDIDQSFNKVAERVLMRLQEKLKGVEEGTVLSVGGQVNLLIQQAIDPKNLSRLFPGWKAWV
Sequence of MKNK1 (Q9BUB5 whole entry): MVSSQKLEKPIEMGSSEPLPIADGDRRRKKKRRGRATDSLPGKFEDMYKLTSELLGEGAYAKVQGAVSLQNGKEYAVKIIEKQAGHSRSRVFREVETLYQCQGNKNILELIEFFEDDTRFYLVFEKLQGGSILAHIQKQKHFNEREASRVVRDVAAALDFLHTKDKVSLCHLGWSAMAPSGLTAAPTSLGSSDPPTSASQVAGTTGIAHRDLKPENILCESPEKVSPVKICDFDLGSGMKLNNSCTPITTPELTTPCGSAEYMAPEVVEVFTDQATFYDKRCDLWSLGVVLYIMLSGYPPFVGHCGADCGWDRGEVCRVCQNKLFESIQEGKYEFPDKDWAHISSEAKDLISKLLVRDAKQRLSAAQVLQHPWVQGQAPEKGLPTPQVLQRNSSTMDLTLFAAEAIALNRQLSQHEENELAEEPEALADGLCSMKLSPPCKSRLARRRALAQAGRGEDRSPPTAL
Sequence of FN3KRP (Q9HA64 whole entry): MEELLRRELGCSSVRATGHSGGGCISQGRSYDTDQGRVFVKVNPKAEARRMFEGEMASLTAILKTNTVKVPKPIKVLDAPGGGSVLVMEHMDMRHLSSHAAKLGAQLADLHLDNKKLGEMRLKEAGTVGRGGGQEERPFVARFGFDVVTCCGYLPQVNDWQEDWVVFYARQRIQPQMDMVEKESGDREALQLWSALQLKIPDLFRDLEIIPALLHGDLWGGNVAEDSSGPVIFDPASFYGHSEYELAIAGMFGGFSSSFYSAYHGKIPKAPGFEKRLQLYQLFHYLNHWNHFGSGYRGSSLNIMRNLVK

- IC50 (FRK): ≥ 20 µM
- IC50 (MAPKAPK3): ≥ 20 µM
- IC50 (DYRK1A): ≥ 20 µM
- IC50 (TTK): ≥ 20 µM
- IC50 (MERTK): ≥ 20 µM
- IC50 (JAK3): ≥ 20 µM
- IC50 (MAP3K4): ≥ 20 µM
- IC50 (TEK): ≥ 20 µM
- IC50 (HIPK1): ≥ 20 µM
- IC50 (PTK2B): ≥ 20 µM
- IC50 (ACVR1B): ≥ 20 µM
- IC50 (PRKCI): ≥ 20 µM
- IC50 (FN3KRP): ≥ 20 µM
- IC50 (BMX): ≥ 20 µM
- IC50 (ATM): ≥ 20 µM
- IC50 (EPHA7): ≥ 20 µM
- IC50 (RPS6KA6): ≥ 20 µM
- IC50 (KIT): ≥ 20 µM
- IC50 (MKNK1): ≥ 20 µM
- IC50 (MAP4K3): ≥ 20 µM
- IC50 (AZI2): ≥ 20 µM
SMILES: COc1ccccc1-c1n[nH]c2nc(N[C@H]3CC[C@H](NS(=O)(=O)CCC(F)(F)F)CC3)nc(OC)c12 [compound 31, 3,3,3-Trifluoro-N-(trans-4-((4-methoxy-3-(2-methoxyphenyl)-1H-pyrazolo[3,4-d]pyrimidin-6-yl)amino)cyclohexyl)propane-1-sulfonamide]
